# Experimental data reported in PMC9247194, “Mapping of the sGC Stimulator BAY 41-2272 Binding Site on H-NOX Domain and Its Regulation by the Redox State of the Heme” (Frontiers in Cell and Developmental Biology, 2022).
# Biological target: T1, Ns H-NOX (Nostoc sp. PCC 7120 = FACHB-418, UniProt A0ACD6B960, C139A)
# T1 construct: gene alr2278
# Assay: 1H-15N HSQC NMR titration (chemical shift perturbation)
# Format: binding
# Details: 298 K; heme-bound, no NO; surface site next to heme; one KD per perturbed residue
# T1 sequence (A0ACD6B960 entry or part of it C139A): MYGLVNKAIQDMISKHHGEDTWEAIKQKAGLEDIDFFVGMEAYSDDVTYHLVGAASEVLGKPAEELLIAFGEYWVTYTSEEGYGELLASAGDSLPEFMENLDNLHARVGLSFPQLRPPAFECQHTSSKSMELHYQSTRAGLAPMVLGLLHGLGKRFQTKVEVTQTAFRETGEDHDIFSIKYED
smiles,measurement,value
Nc1nc(-c2nn(Cc3ccccc3F)c3ncccc23)ncc1C1CC1 [BAY 41-2272],KD,yielding the binding constant (K D ) for each residue
